In patent publication US7105531B2, “Tricyclic protein kinase inhibitors” (WYETH, priority 1999, dated 2006):
Where a name gives a salt, the structure may show the parent alone.

Target: T1, Rat2 fibroblasts transformed with v-Src/Hu c-Src fusion gene (Homo sapiens, UniProt P12931, cells depend on it, form not given)
T1 construct: fused on or other part: The v-Src frame of Rous sarcoma virus: everything outside the catalytic domain, namely the N-terminal unique/SH3/SH2 part; Candidates are Prague C (P00526), then Schmidt-Ruppin A (P00524)
T1 sequence (P12931 whole entry, change not shown, the tested form may be a part): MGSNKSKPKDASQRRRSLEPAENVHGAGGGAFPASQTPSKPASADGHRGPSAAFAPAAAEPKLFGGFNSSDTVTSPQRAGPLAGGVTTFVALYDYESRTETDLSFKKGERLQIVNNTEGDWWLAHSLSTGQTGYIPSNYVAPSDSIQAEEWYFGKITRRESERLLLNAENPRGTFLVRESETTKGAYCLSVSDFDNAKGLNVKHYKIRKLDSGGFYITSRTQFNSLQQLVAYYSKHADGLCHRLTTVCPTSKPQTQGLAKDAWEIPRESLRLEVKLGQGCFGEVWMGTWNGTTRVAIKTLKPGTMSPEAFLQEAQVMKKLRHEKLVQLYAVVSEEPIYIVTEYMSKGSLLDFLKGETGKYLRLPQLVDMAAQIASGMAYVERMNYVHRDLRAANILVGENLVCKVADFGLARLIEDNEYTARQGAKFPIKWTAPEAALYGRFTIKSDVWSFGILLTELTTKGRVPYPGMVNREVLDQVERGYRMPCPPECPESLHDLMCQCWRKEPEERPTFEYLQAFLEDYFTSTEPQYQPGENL
Assay: Anchorage independent Src-transformed fibroblast proliferation test procedure
Assay type: cell-based, rat
Conditions: rat2 fibroblasts transformed with v-src/hu c-src fusion gene; read-out: Src TF prolif IC50
Description: Anchorage Independent Src-transformed Fibroblast Proliferation Test Procedure: Rat2 fibroblasts stably transformed with a plasmid containing CMV promotor controlled v-Src/Hu c-Src fusion gene in which the catalytic domain of human c-Src is inserted in place of the v-Src catalytic domain in the v-Src gene are used for the measurement of src dependent suspension growth.

Structure (SMILES)	GI50
COc1cc(Nc2c(C#N)cnc3cc4cc(OC)c(OCCN5CCN(C)CC5)cc4cc23)c(Cl)cc1F [Example 201, 4-(2-Chloro-4-fluoro-5-methoxyanilino)-8-methoxy-7-[2-(4-methyl-1-piperazinyl)ethoxy]benzo[g]quinoline-3-carbonitrile]	0.175 µM
COc1cc(Nc2c(C#N)cnc3cc4cc(OCCN5CCN(C)CC5)c(OC)cc4cc23)c(Cl)cc1F [Example 211, 4-(2-Chloro-4-fluoro-5-methoxyanilino)-7-methoxy-8-[2-(4-methyl-1-piperazinyl)ethoxy]benzo[g]quinoline-3-carbonitrile]	0.128 µM
COc1cc(Nc2c(C#N)cnc3cc4cc(OCCn5ccnn5)c(OC)cc4cc23)c(Cl)cc1Cl [Example 159, 4-(2,4-Dichloro-5-methoxyphenylamino)-7-methoxy-8-(2-[1,2,3]triazol-1-yl-ethoxy)benzo[g]quinoline-3-carbonitrile]	0.073 µM
COc1cc(Nc2c(C#N)cnc3cc4cc(OCCN5CCOCC5)c(OC)cc4cc23)c(Cl)cc1Cl [Example 129, 4-(2,4-dichloro-5-methoxyanilino)-7-methoxy-8-[2-(4-morpholinyl)ethoxy]benzo[g]quinoline-3-carbonitrile]	0.015 µM
COc1cc(Nc2c(C#N)cnc3cc4cc(OCCn5nccn5)c(OC)cc4cc23)c(Cl)cc1Cl [Example 158, 4-(2,4-Dichloro-5-methoxyphenylamino)-7-methoxy-8-(2-[1,2,3]triazol-2-yl-ethoxy)benzo[g]quinoline-3-carbonitrile]	0.067 µM

Tested on: not given
Assay: not given
Conditions: not given

Structure (SMILES)	melting point
COc1cc(Nc2c(C#N)cnc3cc4cc(OC)c(OCCN5CCN(C)CC5)cc4cc23)c(Cl)cc1F [Example 201, 4-(2-Chloro-4-fluoro-5-methoxyanilino)-8-methoxy-7-[2-(4-methyl-1-piperazinyl)ethoxy]benzo[g]quinoline-3-carbonitrile]	170 to 173 °C
COc1cc(Nc2c(C#N)cnc3cc4cc(OCCN5CCN(C)CC5)c(OC)cc4cc23)c(Cl)cc1F [Example 211, 4-(2-Chloro-4-fluoro-5-methoxyanilino)-7-methoxy-8-[2-(4-methyl-1-piperazinyl)ethoxy]benzo[g]quinoline-3-carbonitrile]	197 to 205 °C
COc1cc(Nc2c(C#N)cnc3cc4cc(OCCn5ccnn5)c(OC)cc4cc23)c(Cl)cc1Cl [Example 159, 4-(2,4-Dichloro-5-methoxyphenylamino)-7-methoxy-8-(2-[1,2,3]triazol-1-yl-ethoxy)benzo[g]quinoline-3-carbonitrile]	245 °C (dec.)
COc1cc(Nc2c(C#N)cnc3cc4cc(OCCCl)c(OC)cc4cc23)c(C)cc1Cl [Example 122, 4-(4-chloro-5-methoxy-2-methylanilino)-7-methoxy-8-(chloroethoxy)benzo[g]quinoline-3-carbonitrile]	132 to 168 °C (dec.)
COc1ccc2cc3ncc(C#N)c(Nc4ccc(Cl)cc4Cl)c3cc2c1 [Example 103, 4-(2,4-Dichloroanilino)-7-methoxybenzo[g]quinoline-3-carbonitrile]	215 to 217 °C
N#Cc1cnc2cc3cc(O)c(O)cc3cc2c1Nc1ccc(Cl)cc1Cl [Example 15, 4-(2,4-Dichloroanilino)-7,8-dihydroxybenzo[g]quinoline-3-carbonitrile]	> 260 °C
COc1cc2cc3ncc(C#N)c(Nc4ccc(F)c(Cl)c4)c3cc2cc1OC (as salt: salt) [Example 13, 4-(3-Chloro-4-fluoroanilino)-7,8-dimethoxybenzo[g]quinoline-3-carbonitrile]	> 280 °C
COc1cc2cc3c(Nc4ccc(Sc5nccn5C)c(Cl)c4)c(C#N)cnc3nc2cc1OCCCl [Example 174, 8-(2-Chloroethoxy)-4-{3-chloro-4-[(1-methyl-1H-imidazol-2-yl)sulfanyl]anilino}-7-methoxybenzo[b][1,8]naphthyridine-3-carbonitrile]	> 250 °C (dec.)
COc1cc(Nc2c(C#N)cnc3cc4cc(OCCCl)c(OC)cc4cc23)c(Cl)cc1F [Example 180, 8-(2-Chloroethoxy)-4-(2-chloro-4-fluoro-5-methoxyanilino)-7-methoxybenzo[g]quinoline-3-carbonitrile]	193 to 204 °C
COc1cc(Nc2c(C#N)cnc3cc4cc(OCCN5CCC(O)CC5)c(OC)cc4cc23)c(Cl)cc1Cl	193 to 198 °C
COc1cc(Nc2c(C#N)cnc3cc4cc(OCCN5CCC(O)CC5)c(OC)cc4cc23)c(Cl)cc1C	210 to 215 °C
N#Cc1cnc2c(sc3c(N)cccc32)c1Nc1cccc(Br)c1 [Example 81, 6-Amino-4-(3-bromoanilino)[1]benzothieno[3,2-b]pyridine-3-carbonitrile]	256 to 258 °C
COc1cc2cc3ncc(C#N)c(Nc4ccc(Cl)cc4Cl)c3cc2cc1OC [Example 14, 4-(2,4-Dichloroanilino)-7,8-dimethoxybenzo[g]quinoline-3-carbonitrile]	271 to 273 °C
N#Cc1cnc2c(oc3ccccc32)c1Nc1ccc(Cl)cc1F [Example 86, 4-(4-Chloro-2-fluorophenylamino)benzo[4,5]furo[3,2-b]pyridine-3-carbonitrile]	259 to 261 °C
N#Cc1cnc2c(oc3ccccc32)c1Oc1ccc(Cl)cc1F [Example 89, 4-(4-Chloro-2-fluorophenoxy)-benzo[4,5]furo[3,2-b]pyridine-3-carbonitrile]	138 to 140 °C
COc1cc(Nc2c(C#N)cnc3cc4cc(OCc5ccccc5)c(OC)cc4cc23)c(Cl)cc1F [Example 219, 8-(Benzyloxy)-4-[(2-chloro-4-fluoro-5-methoxyphenyl)amino]-7-methoxybenzo[g]quinoline-3-carbonitrile]	248 to 250 °C (dec.)
Cc1ccc(Nc2c(C#N)cnc3c2C=C2N=CN=C2C3)cc1O [Example 41, 8-(3-Hydroxy-4-methylphenylamino)imidazo[4,5-g]quinoline-7-carbonitrile]	257 to 260 °C (dec.)

Structure (SMILES)	melting point
COc1cc(Nc2c(C#N)cnc3cc4ccccc4cc23)c(C)cc1Cl [Example 5, 4-(4-Chloro-5-methoxy-2-methylanilino)benzo[g]quinoline-3-carbonitrile]	195 to 197 °C
COc1cc2cc3c(Nc4ccc(Sc5nccn5C)c(Cl)c4)c(C#N)cnc3cc2cc1OCCn1ccnn1 [Example 154, 4-[3-Chloro-4-(1-methyl-1H-imidazol-2-ylsulfanyl)phenylamino]-7-methoxy-8-(2-[1,2,3]triazol-1-yl-ethoxy)benzo[g]quinoline-3-carbonitrile]	201 to 207 °C
Cc1ccc(Nc2c(C#N)cnc3c2oc2ccccc23)cc1O [Example 87, 4-(3-Hydroxy-4-methylphenylamino)benzo[4,5]furo[3,2-b]pyridine-3-carbonitrile]	240 °C (dec.)
N#Cc1cnc2cc3ccc(O)cc3cc2c1Nc1ccc(Cl)cc1Cl [Example 105, 4-(2,4-Dichloroanilino)-7-hydroxybenzo[g]quinoline-3-carbonitrile]	> 300 °C
COc1cc(Nc2c(C#N)cnc3nc4cc(OCCN5CCN(C)CC5)c(OC)cc4cc23)c(Cl)cc1Cl [Example 175, 4-(2,4-Dichloro-5-methoxyanilino)-7-methoxy-8-[2-(4-methyl-1-piperazinyl)ethoxy]benzo[b][1,8]naphthyridine-3-carbonitrile]	240 to 243 °C (dec.)
COc1cc(Nc2c(C#N)cnc3cc4cc(OCCCl)c(OC)cc4cc23)c(Cl)cc1C [Example 182, 8-(2-Chloroethoxy)-4-(2-chloro-5-methoxy-4-methylphenylamino)-7-methoxybenzo[g]quinoline-3-carbonitrile]	222 to 236 °C
N#Cc1cnc2c(sc3ccccc32)c1Nc1ccc(Cl)cc1F [Example 66, 4-(4-Chloro-2-fluorophenylamino)benzo[4,5]thieno[3,2-b]pyridine-3-carbonitrile]	250 to 251 °C
COc1cc2cc3c(Nc4ccc(F)c(Cl)c4)c(C#N)cnc3cc2cc1OCCCl [Example 185, 8-(2-Chloroethoxy)-4-(3-chloro-4-fluoroanilino)-7-methoxybenzo[g]quinoline-3-carbonitrile]	137 to 159 °C
N#Cc1cnc2c(sc3ccccc32)c1Nc1cccc(Br)c1 [Example 65, 4-(3-Bromophenylamino)benzo[4,5]thieno[3,2-b]pyridine-3-carbonitrile]	240 to 242 °C
N#Cc1cnc2c(oc3ccccc32)c1Nc1ccc(Oc2ccccc2)cc1 [Example 88, 4-(4-Phenoxyphenylamino)benzo[4,5]furo[3,2-b]pyridine-3-carbonitrile]	175 to 179 °C
COc1ccc(C)c(Nc2c(C#N)cnc3c2C=C2N=C(NCCN4CCOCC4)N=C2C3)c1 [Example 31, 8-(5-Methoxy-2-methylanilino)-2-{[2-(4-morpholinyl)ethyl]amino}imidazo [4,5-g]quinoline-7-carbonitrile]	148 to 150 °C
COc1cc2cc3c(Nc4ccc(F)c(Cl)c4)c(C#N)cnc3cc2cc1OCCN1CCOCC1 [Example 205, 4-(3-Chloro-4-fluoroanilino)-7-methoxy-8-[2-(4-morpholinyl)ethoxy]benzo[g]quinoline-3-carbonitrile]	237 to 242 °C
COc1cc2cc3ncc(C#N)c(Nc4ccc(Oc5ccccc5)c(Cl)c4)c3cc2cc1OCCN1CCOCC1 [Example 214, 4-(3-Chloro-4-phenoxyphenylamino)-8-methoxy-7-(2-morpholin-4-yl-ethoxy)benzo[g]quinoline-3-carbonitrile]	251 to 253 °C
COc1cc2cc3ncc(C#N)c(Nc4ccc(Oc5ccccc5)cc4)c3cc2cc1OC (as salt: salt) [Example 11, 7,8-Dimethoxy-4-(4-phenoxyanilino)benzo[g]quinoline-3-carbonitrile]	> 265 °C
N#Cc1cnc2cc3ccccc3cc2c1Nc1ccc(F)c(Cl)c1 [Example 4, 4-(3-Chloro-4-fluoroanilino)benzo[g]quinoline-3-carbonitrile]	257 to 259 °C
C=CC(=O)Nc1ccc2sc3c(Nc4cccc(Br)c4)c(C#N)cnc3c2c1 [Example 93, N-[4-(3-Bromoanilino)-3-cyano[1]benzothieno[3,2-b]pyridin-8-yl]acrylamide]	> 300 °C (dec.)
Cc1ccc(Nc2c(C#N)cnc3c2sc2ccccc23)cc1O [Example 70, 4-(3-Hydroxy-4-methylphenylamino)benzo[4,5]thieno[3,2-b]pyridine-3-carbonitrile]	260 °C (dec.)
